Consider 12 compounds from ChEMBL document CHEMBL1201862, “PubChem BioAssay data set” (2004).

Test systems include A549; CCRF-CEM; COLO 205; Hs-578T; LOX IMVI; M14; MDA-MB-231; MDA-N; MOLT-4; NCI/ADR-RES; OVCAR-3; OVCAR-8; RPMI-8226; RXF 393; SF-268; SK-MEL-28; SR; A498.
Common to all, as to assay: growth of human tumour cells (NCI), 48 h

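48-hour exposure; five concentrations; linearly interpolated endpoints. GI50 marks 50% less growth.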 The source made the active and inactive calls. Rule as the data show it: active = GI50 up to about 1.1 µM and inactive = higher. Square brackets hold non-standard residues; d marks the D form. Peptide text beside a SMILES is read from it. * marks the point of attachment. X26 = COC1=CC(=O)N(C(=O)[C@@H](O*)C(C)C)[C@H]1Cc1ccccc1; Bn2Val = CC(C)[C@@H](C(=O)*)N(Cc1ccccc1)Cc1ccccc1; NMeV = CN[C@H](C(=O)O)C(C)C; dNMeA = CN[C@H](C)C(=O)O Some results are limits rather than exact numbers.

For `CCn1c(=O)c2nc(SC)sc2n(-c2ccc(C)cc2)c1=O`, the GI50 was > 100 µM (inactive) with A549; > 100 µM (inactive) in the assay with CCRF-CEM; > 100 µM (inactive) with COLO 205; 21.3 µM (inactive) in the assay with Hs-578T; > 100 µM (inactive) in the assay on LOX IMVI; 6.68 µM (inactive) with M14. The GI50 in the assay with MDA-MB-231, with MDA-N, with MOLT-4, in the assay with NCI/ADR-RES, with OVCAR-3 and in the assay with OVCAR-8 was > 100 µM (inactive) throughout. In addition, the GI50 with RPMI-8226, in the assay on RXF 393, in the assay with SF-268, in the assay on SK-MEL-28 and with SR was > 100 µM (inactive) each time.
Take `CC(=O)Nc1nc(O)c2nc(C=O)cnc2n1`: the GI50 in the assay with A498, in the assay with A549, in the assay on COLO 205, in the assay with Hs-578T, in the assay with LOX IMVI and in the assay on M14 was > 100 µM (inactive) in each case. Besides, the GI50 with MDA-MB-231, in the assay on MDA-N, in the assay with MOLT-4, in the assay with NCI/ADR-RES, with OVCAR-3 and in the assay on OVCAR-8 was > 100 µM (inactive) throughout. For the same compound, the GI50 in the assay on RPMI-8226, in the assay with RXF 393, with SF-268, in the assay on SK-MEL-28 and in the assay with SR was > 100 µM (inactive) in each case.
For `CCc1cc2c(c3c1CCCC3=O)CC1(Cc3ccc(C(=O)OC)cc3C1)C2` (centres undefined), the GI50 in the assay on A498 was > 100 µM (inactive); in the assay on A549, 48.4 µM (inactive); in the assay on CCRF-CEM, 29.3 µM (inactive); with COLO 205 it was 47.9 µM (inactive); with Hs-578T it was > 100 µM (inactive); with LOX IMVI, 84.5 µM (inactive). The GI50 in the assay with M14 was 94.8 µM (inactive); with MDA-MB-231, > 100 µM (inactive); with MDA-N it was > 100 µM (inactive); in the assay on MOLT-4, 24.9 µM (inactive); with NCI/ADR-RES it was 76 µM (inactive); in the assay on OVCAR-3 it was > 100 µM (inactive). The GI50 in the assay on OVCAR-8 was > 100 µM (inactive); in the assay with RPMI-8226, 18.7 µM (inactive); in the assay on RXF 393, 32.5 µM (inactive); in the assay on SF-268 it was > 100 µM (inactive); in the assay on SK-MEL-28, 64 µM (inactive).
Turning to `CC(=O)NNc1nc(C)c(C(/C=C/c2ccc3c(c2)OCO3)=N/NC(=O)c2ccncc2)s1`, the GI50 with A498, in the assay with A549, in the assay on CCRF-CEM, with Hs-578T, with LOX IMVI and in the assay with M14 was > 100 µM (inactive) throughout. For the same compound, the GI50 in the assay with MDA-MB-231, with MDA-N, with MOLT-4, with NCI/ADR-RES, in the assay on OVCAR-3 and with OVCAR-8 was > 100 µM (inactive) each time. Further, the GI50 with RPMI-8226, with RXF 393, with SF-268, with SK-MEL-28 and in the assay with SR was > 100 µM (inactive) each time.
For `CCOC(=O)C(=Cc1[nH]c2ccccc2c1-c1c[nH]c2ccccc12)C(=O)OCC`, the GI50 in the assay on A498 is 14.5 µM (inactive); in the assay with A549, 16.6 µM (inactive); in the assay on COLO 205, 16.2 µM (inactive); in the assay on Hs-578T, 29.9 µM (inactive); in the assay with LOX IMVI, 12.7 µM (inactive); with M14, 10 µM (inactive). Moreover, the GI50 with MDA-MB-231 is 16.9 µM (inactive); in the assay on MDA-N, 13.3 µM (inactive); in the assay with MOLT-4, 0.923 µM (active); in the assay on NCI/ADR-RES, 7.16 µM (inactive); with OVCAR-3, 9.33 µM (inactive); in the assay on OVCAR-8 it was 11.3 µM (inactive). Also, the GI50 is 2.84 µM (inactive) in the assay with RPMI-8226, 10.8 µM (inactive) with RXF 393, 13.3 µM (inactive) in the assay with SF-268 and 3.13 µM (inactive) in the assay with SR.
Take `COC1=CC(=O)N(C(=O)[C@@H](OC(=O)[C@@H](C)N(C)C(=O)[C@@H]2CCCN2C(=O)[C@H](C(C)C)N(C)C(=O)[C@@H](NC(=O)[C@H](C(C)C)N(Cc2ccccc2)Cc2ccccc2)C(C)C)C(C)C)[C@H]1Cc1ccccc1` (Bn2Val-V[NMeV]P[dNMeA]-X26): the GI50 in the assay on A498 was 38.2 µM (inactive); with A549, > 100 µM (inactive); with CCRF-CEM, > 100 µM (inactive); in the assay with COLO 205, > 100 µM (inactive); with Hs-578T, > 100 µM (inactive); in the assay with LOX IMVI it was > 100 µM (inactive). The GI50 is 68.1 µM (inactive) in the assay with M14; 13.4 µM (inactive) in the assay with MDA-MB-231; > 100 µM (inactive) in the assay with MDA-N; > 100 µM (inactive) in the assay on NCI/ADR-RES; > 100 µM (inactive) in the assay on OVCAR-3; > 100 µM (inactive) in the assay with OVCAR-8. The GI50 was > 26.2 µM (inactive) with RXF 393, > 100 µM (inactive) with SF-268, > 100 µM (inactive) in the assay with SK-MEL-28 and > 100 µM (inactive) in the assay on SR.
With `CCCC(=O)Nc1ncnc2c1ncn2C1OC2COP(=O)(O)OC2C1OC(=O)CCC` (centres undefined), the GI50 in the assay with A498 is 31.9 µM (inactive); in the assay with A549, > 100 µM (inactive); in the assay with CCRF-CEM, 266 µM (inactive); in the assay with COLO 205, > 100 µM (inactive); with Hs-578T, > 1000 µM (inactive); in the assay on LOX IMVI it was > 100 µM (inactive). For the same compound, the GI50 in the assay with M14 is > 100 µM (inactive); in the assay with MDA-MB-231, 479 µM (inactive); with MDA-N, > 100 µM (inactive); in the assay with MOLT-4 it was > 100 µM (inactive); in the assay with NCI/ADR-RES, > 100 µM (inactive); with OVCAR-3, > 100 µM (inactive). Also, the GI50 is > 100 µM (inactive) in the assay on OVCAR-8; > 1000 µM (inactive) with RPMI-8226; > 100 µM (inactive) with SF-268; > 100 µM (inactive) with SK-MEL-28; 493 µM (inactive) with SR.
`COP1(=O)OCc2cnccc2O1` (centres undefined): the GI50 in the assay on A549, in the assay with COLO 205, in the assay with Hs-578T, in the assay on LOX IMVI, in the assay with M14 and with MDA-MB-231 was > 100 µM (inactive) each time. For the same compound, the GI50 in the assay on MDA-N, in the assay with MOLT-4, in the assay on NCI/ADR-RES, in the assay with OVCAR-3, in the assay with OVCAR-8 and in the assay on RPMI-8226 was > 100 µM (inactive) each time. The GI50 in the assay with SF-268, in the assay with SK-MEL-28 and with SR was > 100 µM (inactive) each time.
For the compound `Cc1cc(-c2nc3ccccc3s2)ccc1NS(=O)(=O)O`, the GI50 in the assay on A498 is 65.9 µM (inactive); in the assay with A549, > 5.82 µM (inactive); in the assay with CCRF-CEM it was > 4.65 µM (inactive); in the assay on COLO 205 it was > 4.65 µM (inactive); in the assay with Hs-578T, > 6.28 µM (inactive); in the assay with LOX IMVI it was > 4.65 µM (inactive). For the same compound, the GI50 was > 29.5 µM (inactive) with M14; > 24.1 µM (inactive) with MDA-MB-231; > 6.04 µM (inactive) with MDA-N; 4.73 µM (inactive) in the assay with MOLT-4; > 7.1 µM (inactive) in the assay on NCI/ADR-RES; > 4.85 µM (inactive) in the assay with OVCAR-8. The GI50 is > 4.65 µM (inactive) in the assay on RPMI-8226, > 9.64 µM (inactive) in the assay on SF-268, > 42 µM (inactive) in the assay on SK-MEL-28 and 4.34 µM (inactive) in the assay with SR.
As to `O=C(Nc1ccccc1C(=O)Nc1nccs1)c1ccccc1`, the GI50 in the assay on A498 is 8.51 µM (inactive); with A549, 12.4 µM (inactive); in the assay on CCRF-CEM, 4.98 µM (inactive); in the assay on COLO 205 it was 4.04 µM (inactive); with Hs-578T, 23.9 µM (inactive); in the assay on LOX IMVI it was 4.83 µM (inactive). In addition, the GI50 was 19.7 µM (inactive) in the assay on M14; 25.1 µM (inactive) with MDA-MB-231; 19.5 µM (inactive) in the assay with MDA-N; 3.44 µM (inactive) with MOLT-4; 6.17 µM (inactive) with NCI/ADR-RES; 3.98 µM (inactive) in the assay on OVCAR-3. The GI50 with OVCAR-8 was 54.5 µM (inactive); in the assay on RPMI-8226, 6.65 µM (inactive); in the assay with SF-268, 14.6 µM (inactive); in the assay on SK-MEL-28 it was 20.7 µM (inactive); in the assay on SR, 7.31 µM (inactive).
Regarding `Oc1nc2nc3ccccc3nc2nc1O`, the GI50 in the assay with A549, in the assay with CCRF-CEM, in the assay with COLO 205, in the assay with Hs-578T, with LOX IMVI and in the assay on M14 was > 100 µM (inactive) in each case. The GI50 in the assay with MDA-MB-231, in the assay with MDA-N, with MOLT-4, with NCI/ADR-RES, in the assay with OVCAR-3 and in the assay with OVCAR-8 was > 100 µM (inactive) throughout. The GI50 in the assay on RPMI-8226, with RXF 393, in the assay on SF-268, in the assay with SK-MEL-28 and in the assay on SR was > 100 µM (inactive) throughout.
`CCOC(=O)c1nc2ccccc2nc1Oc1ccc(C#N)cc1`: the GI50 with A498, with A549, in the assay with CCRF-CEM, in the assay on COLO 205, in the assay with Hs-578T and in the assay on LOX IMVI was > 100 µM (inactive) each time. Also, the GI50 was > 100 µM (inactive) in the assay on M14; > 10 µM (inactive) in the assay on MDA-MB-231; > 100 µM (inactive) in the assay with MDA-N; > 100 µM (inactive) in the assay on MOLT-4; > 100 µM (inactive) in the assay on NCI/ADR-RES; > 100 µM (inactive) in the assay with OVCAR-3. The GI50 in the assay with OVCAR-8, in the assay on RPMI-8226, in the assay on RXF 393, in the assay with SF-268 and with SK-MEL-28 was > 100 µM (inactive) each time.
